Reference: PubChem BioAssay AID1949 (Southern Research Institute, 2009)
Values after ≈ are worked out from the molar mass of the structure shown. Inconclusive results are not listed. Active and inactive are the calls of the source. No rule for the calls is given here.

These compounds were tested on M. tuberculosis H37Rv growth inhibition (assay: Confirmatory growth inhibition assay against Mycobacterium tuberculosis H37Rv, potency (AID 1949);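 also: bacteria grown 7 days with compound before Alamar blue readout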).
With `Cc1ccc(C)c(-c2nn(-c3cc(N4CCN(C)CC4)ccc3[N+](=O)[O-])c(=O)c3ccccc23)c1` the IC50 was 1.76 µg/mL (≈ 3.75 µM).
Compound `O=C(COc1ccc(Cl)cc1)Nc1ccc(N2CCN(C(=O)c3ccco3)CC2)c(Cl)c1` has an IC50 of 1.67 µg/mL (≈ 3.52 µM).
`Cc1cc2ncn(Cc3ccccc3C)c2cc1C` showed an IC50 of 11.1 µg/mL (≈ 44.4 µM).
`Cc1ccc(-c2ccc(/C=C/C(=O)c3ccco3)o2)cc1` showed an IC50 of 1.71 µg/mL (≈ 6.14 µM).
With `Brc1ccc(-c2nn(-c3ccccc3)cc2CNCc2ccccc2)cc1` the IC50 was 1.24 µg/mL (≈ 2.96 µM).
In the case of `CSc1ncc(C(=O)Nc2cccc(C(F)(F)F)c2)cn1`, the IC50 is reported as less than 0.1 µg/mL.
With `CN(C)c1ccc(Nc2nc(-c3ccc(O)cc3O)cs2)cc1` the IC50 was 1.54 µg/mL (≈ 4.7 µM).
`CCOC(=O)c1cc(-c2ccc(/C=C/[N+](=O)[O-])o2)ccc1Cl` was tested, and the IC50 was > 50 µg/mL (inactive).
`Cc1ccc(C(=O)Nc2ccc([N+](=O)[O-])cc2)s1` was tested, and the IC50 was less than 0.1 µg/mL.
Work on `CCOC(=O)CSc1nnc2c3sc4nc(N5CCOCC5)c5c(c4c3ncn12)CC(C)(C)OC5` yielded an IC50 of 1.33 µg/mL (≈ 2.58 µM).
Work on `O=C(Nc1cccc([N+](=O)[O-])c1)N1CCN(Cc2ccc(Cl)cc2Cl)CC1` yielded an IC50 of 5.06 µg/mL (≈ 12.4 µM).
Work on `COc1ccc(CC(=O)Nc2ccc(-c3nc4ccccc4c(=O)o3)cc2)cc1` yielded an IC50 of 15.1 µg/mL (≈ 39 µM).
Compound `O=[N+]([O-])c1ccc(N2CCN(C(=S)NCc3ccc(Cl)cc3)CC2)cc1` has an IC50 of 2.58 µg/mL (≈ 6.6 µM).
`Cc1ccc(NC(=O)C23CC4CCC(CC(C4)C2)C3)cc1` showed an IC50 of 0.19 µg/mL (≈ 0.67 µM).
`O=C(c1ccc(Cl)cc1)c1ccc(OCC(O)CN2CCN(Cc3ccccc3)CC2)cc1` (stereo not drawn) gave an IC50 of 2.75 µg/mL (≈ 5.91 µM).
Compound `C=C1C2(C(=O)Nc3nc4ccc(Br)cc4s3)CCC(C2)C1(C)C` (stereo not drawn) has an IC50 of 11.4 µg/mL (≈ 29.1 µM).
With `CCOC(=O)c1c(NC(=O)c2cc3ccccc3oc2=O)sc(C)c1-c1ccccc1` the IC50 was > 50 µg/mL (inactive).
Work on `Cc1ccc(N2CCN(CC(O)COc3ccc4ccccc4c3)CC2)c(C)c1` (stereo not drawn) yielded an IC50 of 9.31 µg/mL (≈ 23.8 µM).
Work on `CCOC(=O)c1c(NC(=O)CN2CCN(C)CC2)sc2c1CCC(C)C2` (stereo not drawn) yielded an IC50 of 5.8 µg/mL (≈ 15.3 µM).
With `O=[N+]([O-])c1ccc(O)c(-c2nc3ccccc3s2)c1` the IC50 was > 50 µg/mL (inactive).
Work on `Cc1cc(C)c(-n2c(O)c(/C=C3\C=CC=N3)c(=O)[nH]c2=O)c(C)c1` yielded an IC50 of 0.13 µg/mL (≈ 0.402 µM).
With `CSc1nc(C)cc(OCC(=O)Nc2ccc(Cl)cc2)n1` the IC50 was 6.69 µg/mL (≈ 20.7 µM).
Compound `CCCCNCCOCCOc1ccc(Cl)cc1C(C)(C)C` has an IC50 of 4.33 µg/mL (≈ 13.2 µM).
`CC(=O)c1ccc(COC(=O)c2ccc([N+](=O)[O-])cc2Cl)cc1` was tested, and the IC50 was 40.7 µg/mL (≈ 122 µM).
With `C/C(=N/N=C1\NC(=O)C(Cc2ccc(F)cc2)S1)c1ccc(C)cc1` (stereo not drawn) the IC50 was > 50 µg/mL (inactive).
`Cc1ccc(OCC(=O)c2ccc(Br)cc2)cc1C` was tested, and the IC50 was 47.7 µg/mL (≈ 149 µM).
Work on `CC(Oc1ccc(C(C)(C)C)cc1)c1nc(-c2ccncc2)no1` (stereo not drawn) yielded an IC50 of 22.8 µg/mL (≈ 70.6 µM).
With `CCOC(=O)c1ccc(NC(=S)Nc2cc(Cl)c(Cl)cc2Cl)cc1` the IC50 was 2.72 µg/mL (≈ 6.74 µM).
In the case of `CCOC(=O)CSc1cc(C)nc2ccc(C)cc12`, the IC50 is reported as 1.66 µg/mL (≈ 6.03 µM).
For `c1ccc(COc2ccc(OCCn3ccnc3)cc2)cc1`, the IC50 was 10.4 µg/mL (≈ 35.2 µM).
`Cc1ccc(Nc2ccc(-n3ccnc3)nn2)cc1Cl` gave an IC50 of 2.67 µg/mL (≈ 9.34 µM).
For `CC(=O)NC(=S)NNC(=O)c1ccc(C)c(Br)c1`, the IC50 was 1.77 µg/mL (≈ 5.36 µM).
`Cc1ccc(NC(=O)C2C3CC/C=C\CC/C=C/CCC32)cc1C` (stereo not drawn) showed an IC50 of 23.6 µg/mL (≈ 72.8 µM).
`COc1ccc(N2CCN(CC(O)COc3ccc(C)cc3C(C)(C)C)CC2)cc1` (stereo not drawn) showed an IC50 of 4.09 µg/mL (≈ 9.91 µM).
`Cc1cccc(NC(=S)NC(=O)CC23CC4CC(CC(C4)C2)C3)c1` was tested, and the IC50 was 2.89 µg/mL (≈ 8.44 µM).
Compound `CCCCOc1ccc(NC2=NC3(CCCCC3)N=C(N)N2)cc1` has an IC50 of 12.1 µg/mL (≈ 36.6 µM).
For `O=C(Nc1ccc(F)cc1)c1ccc(C#CC2(O)CCCCC2)cc1`, the IC50 was 10.6 µg/mL (≈ 31.4 µM).
In the case of `CCOC(=O)N1CCc2c(sc(NC(=O)c3ccc([N+](=O)[O-])o3)c2C(=O)Nc2ccc(OCC)cc2)C1`, the IC50 is reported as 5.64 µg/mL (≈ 10.7 µM).
With `CCOC(=O)CSc1n[nH]c(-c2ccc(Cl)cc2)n1` the IC50 was 2.99 µg/mL (≈ 10 µM).
In the case of `O=[N+]([O-])/C=C/c1ccccc1OCc1cccc(F)c1`, the IC50 is reported as 6.26 µg/mL (≈ 22.9 µM).
Work on `O=C(NCc1cccc(C(F)(F)F)c1)Nc1cccc(Cl)c1` yielded an IC50 of 5.93 µg/mL (≈ 18 µM).
In the case of `Nc1ccc2nc(SCC(=O)Nc3cccc(Cl)c3)sc2c1`, the IC50 is reported as > 50 µg/mL (inactive).
In the case of `COc1ccc(CCNC(=S)N2CCN(C/C=C/c3ccccc3)CC2)cc1OC`, the IC50 is reported as 1.73 µg/mL (≈ 4.06 µM).
Work on `O=C(Oc1c(Cl)cc(Cl)c2cccnc12)c1ccc([N+](=O)[O-])cc1` yielded an IC50 of 0.88 µg/mL (≈ 2.42 µM).
Work on `COc1cc(CNCCCO)cc(Cl)c1OCc1ccc(Cl)cc1Cl` yielded an IC50 of 6.25 µg/mL (≈ 15.4 µM).
Work on `COc1cccc(NC(=O)CSc2nnc(-c3ccc(Br)cc3)o2)c1` yielded an IC50 of 3.12 µg/mL (≈ 7.42 µM).
`C1=C(c2ccc(Oc3ccccc3)cc2)N2CCN=C2S1` gave an IC50 of 5.23 µg/mL (≈ 17.8 µM).
`Nc1nc2ccccc2n1CCOc1cccc2ccccc12` was tested, and the IC50 was 4.95 µg/mL (≈ 16.3 µM).
Work on `Cc1cc(Nc2cccc(Cl)c2)nc(NCc2ccccc2)n1` yielded an IC50 of 1.39 µg/mL (≈ 4.28 µM).
For `CC1(C)Cc2c(sc3nc(SCC(=O)Nc4ccc(Br)cc4)nc(N)c23)CS1`, the IC50 was 6.22 µg/mL (≈ 12.6 µM).
In the case of `O=C(CCNc1ccc(F)cc1)c1ccco1`, the IC50 is reported as 5.39 µg/mL (≈ 23.1 µM).
Compound `Cc1cc(OCCCn2ccnc2)ccc1C(C)C` has an IC50 of 4.44 µg/mL (≈ 17.2 µM).
Work on `CC(C)(C)c1ccc(C(=O)Nc2cccc(NC(=O)c3cccs3)c2)cc1` yielded an IC50 of 2.28 µg/mL (≈ 6.02 µM).
For `Cc1ccc(Cn2cnc3sc4c(c3c2=O)CCCC4)cc1`, the IC50 was 8.41 µg/mL (≈ 27.1 µM).
For `O=c1[nH]c(/C=C/c2cccc3ccccc23)nc(O)c1[N+](=O)[O-]`, the IC50 was 2.8 µg/mL (≈ 9.05 µM).
`Cc1cc2ncn(CCOc3ccccc3C)c2cc1C` gave an IC50 of 6.93 µg/mL (≈ 24.7 µM).
`Cc1cc(O)ccc1N1C(=O)c2cccc3c([N+](=O)[O-])ccc(c23)C1=O` showed an IC50 of 21.3 µg/mL (≈ 61.1 µM).
`COC(=O)COc1ccc(NC(=O)COc2cccc(C)c2)cc1` gave an IC50 of 0.77 µg/mL (≈ 2.34 µM).
